Patent US11814352B2, “Salts formed by 2-(1-acyloxy-n-pentyl) benzoic acid and basic amino acid or aminoguanidine, and preparation method and application thereof” (JIANGSU KANION PHARMACEUTICAL CO., LTD., priority 2018, dated 2023)
Several values for one entry are separate records, joined by “and”; a condition that tells them apart may be missing. Identical values can stand only once. Marks after values point to notes of the source that are not given here.

Experiments:
MCAO rats = assay: Cerebral infarction, cerebral edema and nerve function of rats with focal cerebral ischemia (MCAO); format: in vivo, SD rats
Method: The total number of the animals was 88.
Sham operation group: equal volume of normal saline (containing 1% DMSO) (iv. 3 days), TTC, cerebral edema and neurological function score (n=8); […]
The middle cerebral arteries of the rats were blocked by a suture-occluded method, and reperfused after 2 h. […] All drugs were formulated into normal saline solutions containing 1% DMSO for administration, and the duration of administration was controlled at approximately 1 min. […] 2 h after the last administration, the neurological defect scores were firstly obtained, and then the rats of each group were sacrificed. The whole brains were taken out and weighed (wet weight), TTC stained, and dried to determine the effects of the compounds on cerebral infarction and cerebral edema.
2 h after the last administration, the neurological defects of the animals were graded and scored by the Longa's method.
After the neurobehavioral examination was completed, four coronal incisions were made on the whole brains of the rats on the optic chiasma and 2 mm anteroposterior positions of the optic chiasma. After the whole brains were cut into five slices, the brain slices were quickly placed in 5 ml of phosphate buffer solution containing 2% TTC, and incubated at 37° C. in the dark. In the incubation process, the brain slices were turned once every 5 min. After 10 min of incubation, the brain slices were taken out and pictures were taken with a digital camera (Olympus C-4000, Japan).
The calculation formula of brain water content is as follows: Water content of brain tissue (%)=(wet weight of brain tissue−dry weight of brain tissue)/wet weight of brain tissue×100%; Cerebral edema rate (%)=water content of brain tissue of each group (%)−water content of brain tissue of sham operation group (%)/water content of brain tissue of sham operation group (%)×100%; Inhibition rate of cerebral edema (%)=(rate of cerebral edema of model group (%)−rate of cerebral edema of administration group (%))/rate of cerebral edema of model group (%)×100%.

[1] = system: arteriovenous bypass thrombosis in rats; assay: Effect on arteriovenous bypass thrombosis in rats; format: in vivo, SD rats; conditions: 10 mg/kg/day tail vein 7 days; for Dry weight of thrombus / Wet weight of thrombus: 2 h after last dose; for Inhibition rate (dry weight of thrombus) / Inhibition rate (wet weight of thrombus): vs model group
Method: Male SD rats, weighing 250-280 g, purchased from Beijing Vital River Laboratory Animal Technology Co., Ltd., raised in an SPF breeding environment with indoor temperature controlled at 23±2° C., and allowed to freely eat and drink. The total number of the animals is 64.
Model group: injected with the same volume of normal saline (containing 1% DMSO) through the tail vein, and administered continuously for 7 days. The test was started 2 h after the last dose (n=8).
The dose of all drugs was 10 mg/kg/day. The drugs were formulated into normal saline solutions containing 1% DMSO, and injected through the tail vein for 7 consecutive days. The test was started 2 hours after the last dose (n=8).
The rats were intraperitoneally injected with a 3% pentobarbital sodium solution (30 mg/kg). After anesthesia, the rats were immobilized in the supine position, and a median cervical incision was made to separate the right common carotid artery and left external jugular vein. A 6 cm long suture was put in the middle of a polyethylene tube (the suture needs to be weighed before being put in the tube), and the polyethylene tube was filled with heparin saline (50 U/mL). The polyethylene tube was inserted into the separated blood vessels to make the artery and vein form a loop. After 15 min of circulation of the blood flow, the suture was taken out, and the suture with thrombus was collected and weighed immediately. Then, after the suture was dried at room temperature for 24 h, the dry weight was determined. The total weight minus the weight of the suture was the wet weight of the thrombus, and the dry weight minus the weight of the suture was the dry weight of the thrombus.

[2] = system: ADP induced platelet aggregation; assay: In vitro anti-platelet aggregation, ADP induced (turbidimetry, PRP); format: cell-based, rabbits; conditions: read-out: IC50 ADP (10 μM); rabbit PRP, inducer ADP 10 μM, 37° C.
Method: (§1) The animals were used for experiments after 1 week.
(§2) The common carotid artery was separated, and a polyethylene tube was inserted into the common carotid artery to collect blood. […] The upper beige suspension was pipetted to obtain the platelet-rich plasma (PRP). […] The PRP was adjusted with the PPP to make the platelet count at 1×10^8/mL.
(§3) 260 μL of platelet-rich plasma (PRP) was added into a turbidimetric tube. Then 10 μL of test compounds with different concentrations, positive control drugs or normal saline were separately added, and the plasma was incubated at 37° C. for 5 min. Then 30 μL of inducers were added in sequence. The final concentration of an inducer ADP is 10 μM, and the final concentration of an inducer AA is 1 mM. […] Inhibition rate of platelet aggregation (IRPA)=(platelet aggregation rate of the control group−platelet aggregation rate of the experimental group)/platelet aggregation rate of the control group×100%.

[3] = literature value; cited from earlier work
[4] = Solubility test (saturated solubility in water); format: physicochemical; conditions: 25±2° C.
Method: Test method: 10 mg of a test sample (solid was ground into fine powder) was weighed and added to a certain amount of solvent at 25±2° C. (the temperature of a water bath is controlled at 25° C.), and the solution was shaken vigorously for 30 s every 5 min. The dissolution was observed within 30 min. When there were no visible solute particles or droplets, the test sample was regarded as completely dissolved.

[5] = system: AA induced platelet aggregation; assay: In vitro anti-platelet aggregation, AA induced (turbidimetry, PRP); format: cell-based, rabbits; conditions: read-out: IC50 AA (1 mM); rabbit PRP, inducer AA 1 mM, 37° C.
Method: as §1, §2, §3

[6] = Concentration of metabolites in rat brain tissue after intravenous injection of I1s; format: in vivo; conditions: for Concentration in brain tissue (single rats): listed as M4
Method: (§4) 12 clean SD male rats, provided by Qinglongshan Animal Breeding Farm in Jiangning District, Nanjing. The production license number is SCXK (Jiangsu) 2017-0001. The body weight of the rats ranges from 180 to 220 g. The rats were used after being raised in the laboratory of an experimental animal center for 2 days after purchase, fasted for 12 hours before administration and 6 hours after administration, and were allowed to freely drink during the test period.
(§5) The concentration of the original drugs and metabolites in the rat blood were determined by LC-MS/MS, and WinNonlin pharmacokinetics professional software and a statistical moment method were used for calculation to obtain the corresponding pharmacokinetic parameters.

[7] = as above; format: in vivo
[8] = biological target: hERG potassium channel of CHO-hERG cells (Homo sapiens, UniProt Q12809); assay: Effect on hERG potassium channel (automatic patch clamp); conditions: CHO-hERG cells, maximum concentration
[9] = Pharmacokinetics of metabolites in rat plasma after intravenous injection of I1s; format: in vivo, SD male rats; conditions: metabolite in rat plasma after I1s 25 mg/kg tail vein; rats 1-3; listed as M4
Method: as §4, §5

[10] = MCAO rats, 10 mg/kg/day iv 3 days (combinations equimolar), first dose 2 h after reperfusion
[11] = 0.5 h after intravenous injection of I1s
[12] = 1 h after intravenous injection of I1s
[13] = 6 h after intravenous injection of I1s

hERG potassium channel of CHO-hERG cells, sequence (Q12809 whole entry): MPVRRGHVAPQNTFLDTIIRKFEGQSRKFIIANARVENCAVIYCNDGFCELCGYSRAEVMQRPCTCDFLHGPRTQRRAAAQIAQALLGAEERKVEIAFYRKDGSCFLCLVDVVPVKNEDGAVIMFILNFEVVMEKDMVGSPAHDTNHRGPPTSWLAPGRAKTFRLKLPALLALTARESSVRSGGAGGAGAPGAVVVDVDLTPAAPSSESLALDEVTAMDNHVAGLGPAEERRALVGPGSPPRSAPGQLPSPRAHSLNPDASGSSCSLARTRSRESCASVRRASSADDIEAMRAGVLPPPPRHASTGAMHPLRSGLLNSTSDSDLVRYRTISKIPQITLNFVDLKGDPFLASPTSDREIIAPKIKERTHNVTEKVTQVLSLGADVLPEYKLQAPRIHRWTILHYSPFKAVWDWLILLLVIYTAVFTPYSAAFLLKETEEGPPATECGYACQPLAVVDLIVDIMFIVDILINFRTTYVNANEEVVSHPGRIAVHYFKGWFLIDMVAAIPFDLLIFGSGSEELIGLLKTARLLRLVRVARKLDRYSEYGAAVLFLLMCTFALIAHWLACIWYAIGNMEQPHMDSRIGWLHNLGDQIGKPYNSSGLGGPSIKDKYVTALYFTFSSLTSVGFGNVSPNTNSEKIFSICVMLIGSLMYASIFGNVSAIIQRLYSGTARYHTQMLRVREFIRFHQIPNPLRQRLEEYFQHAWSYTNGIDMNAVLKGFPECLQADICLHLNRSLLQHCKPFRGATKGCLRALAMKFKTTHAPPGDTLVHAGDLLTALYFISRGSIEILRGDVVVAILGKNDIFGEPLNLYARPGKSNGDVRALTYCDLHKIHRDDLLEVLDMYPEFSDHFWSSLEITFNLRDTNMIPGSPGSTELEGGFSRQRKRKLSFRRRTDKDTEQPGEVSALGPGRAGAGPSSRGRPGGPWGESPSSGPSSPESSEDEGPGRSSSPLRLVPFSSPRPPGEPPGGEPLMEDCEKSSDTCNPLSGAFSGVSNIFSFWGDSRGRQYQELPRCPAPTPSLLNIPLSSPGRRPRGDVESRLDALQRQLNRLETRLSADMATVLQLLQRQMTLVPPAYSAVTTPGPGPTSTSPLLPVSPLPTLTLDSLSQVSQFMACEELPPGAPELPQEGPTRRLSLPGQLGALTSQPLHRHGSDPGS

**Q.** Which Cerebral edema (MCAO rats; [10]) does the source give for `CCCCC(O)c1ccccc1C(=O)[O-].[K+]` (racemic) [PHPB, Potassium (R/S)-2-(1-hydroxy-n-pentyl) benzoate] here?
**A.** Its Cerebral edema is 10.71 ± 3.55%.

**Q.** And the Infarct volume (MCAO rats; [10])?
**A.** Its Infarct volume is 20.23 ± 3.02%.

**Q.** And the “Inhibition rate of cerebral edema” value (MCAO rats; [10])?
**A.** The value was 33.23%.

**Q.** What about the “Inhibition rate of infarct volume” value (MCAO rats; [10]) of the same compound?
**A.** The value was 51.66%.

**Q.** What about the “Dry weight of thrombus” value [1] of the same compound?
**A.** Its value is 8.90 ± 0.45.

**Q.** And the “Wet weight of thrombus” value [1]?
**A.** The value was 30.64 ± 10.21.

**Q.** What about the “Inhibition rate (dry weight of thrombus)” value [1] of the same compound?
**A.** The value was 11.32%.

**Q.** What about the “Inhibition rate (wet weight of thrombus)” value [1] of the same compound?
**A.** The value was 15.39%.

**Q.** What about the IC50 [2] of the same compound?
**A.** The IC50 was 960 ± 70 µM.

**Q.** What about the half-life [3] of the same compound?
**A.** Its half-life is 45 min.

**Q.** And the “Saturated solubility in H2O, Mean” value [4]?
**A.** The value was 147.07 mg/mL.

**Q.** And the “Saturated solubility in H2O, dissolved sample amount (single determinations)” value [4]?
**A.** The value was 148.30 mg/mL and 148.04 mg/mL and 145.97 mg/mL and 145.98 mg/mL.

**Q.** What about the IC50 [5] of the same compound?
**A.** The IC50 was 350 ± 90 µM.

**Q.** For `CCCC[C@@H]1OC(=O)c2ccccc21` [(S)-NBP, (S)-butylphthalide], which Cerebral edema (MCAO rats; rat, in vivo, iv, 10 mg/kg/day) is on record?
**A.** Its Cerebral edema is 4.45 ± 4.58%.

**Q.** And the Infarct volume (MCAO rats; rat, in vivo, iv, 10 mg/kg/day)?
**A.** The Infarct volume was 14.18 ± 2.69%.

**Q.** What about the “Inhibition rate of cerebral edema” value (MCAO rats; rat, in vivo, iv, 10 mg/kg/day) of the same compound?
**A.** Its value is 72.28%.

**Q.** What about the “Inhibition rate of infarct volume” value (MCAO rats; rat, in vivo, iv, 10 mg/kg/day) of the same compound?
**A.** The value was 66.12%.

**Q.** And the “Dry weight of thrombus” value [1]?
**A.** Its value is 7.44 ± 0.37.

**Q.** What about the “Wet weight of thrombus” value [1] of the same compound?
**A.** The value was 24.18 ± 1.02.

**Q.** What about the “Inhibition rate (dry weight of thrombus)” value [1] of the same compound?
**A.** The value was 25.95^## %.

**Q.** And the “Inhibition rate (wet weight of thrombus)” value [1]?
**A.** Its value is 33.24^## %.

**Q.** And the IC50 [2]?
**A.** The IC50 was 1290 ± 110 µM.

**Q.** And the “Concentration in brain tissue (single rats)” value (shortened to “Concentration … (single rats)”) [6, 11]?
**A.** The value was 556.35 ng/g and 627.76 ng/g and 633.25 ng/g.

**Q.** What about the “Concentration … (single rats)” value [6, 12] of the same compound?
**A.** Its value is 131.66 ng/g and 119.84 ng/g and 388.42* ng/g.

**Q.** And the “Concentration … (single rats)” value [6, 13]?
**A.** Its value is 27.06 ng/g and 30.85 ng/g and 51.78 ng/g.

**Q.** What about the “Passage through the blood-brain barrier” value ([6]; detected in rat brain tissue after iv I1s) of the same compound?
**A.** Its value is “could all pass through the blood-brain barrier”.

**Q.** And the “Concentration in brain tissue, Mean” value [7, 11]?
**A.** Its value is 605.79 ng/g.

**Q.** And the “Concentration in brain tissue, Mean” value [7, 12]?
**A.** The value was 125.75 ng/g.

**Q.** What about the “Concentration in brain tissue, Mean” value [7, 13] of the same compound?
**A.** The value was 36.56 ng/g.

**Q.** What about the “inhibition rate of hERG potassium channel at the maximum concentration” value [8] of the same compound?
**A.** The value was 41.45%.

**Q.** What about the “Saturated solubility in H2O, Mean” value [4] of the same compound?
**A.** Its value is 0.54 mg/mL.

**Q.** What about the “AUC(0-t)” value [9] of the same compound?
**A.** The value was 32828.9 ng·h/mL and 40061.1 ng·h/mL and 34160.8 ng·h/mL.

**Q.** What about the “AUC(0-∞)” value [9] of the same compound?
**A.** The value was 32988.3 ng·h/mL and 40153.8 ng·h/mL and 34287.8 ng·h/mL.

**Q.** What about the Cl [9] of the same compound?
**A.** The Cl was 12.631 mL/min/kg and 10.377 mL/min/kg and 12.152 mL/min/kg.

**Q.** What about the Cmax [9] of the same compound?
**A.** Its Cmax is 52.5136 µg/mL and 69.7952 µg/mL and 65.7002 µg/mL.

**Q.** And the Vz [9]?
**A.** Its Vz is 3.704 L/kg and 2.6838 L/kg and 3.6105 L/kg.

**Q.** What about the IC50 [5] of the same compound?
**A.** The IC50 was 500 ± 40 µM.
